# Reference: article PMC12156367, “Synthesis and Biological Evaluation of Seco-Coumarin/Furoxan Hybrids as Potent Anti-Tumor Agents to Overcome Multidrug Resistance via Multiple Mechanisms” (Molecules, 2025)
# Tests used:
# [1] = tested on: human normal mammary epithelial cell lines MCF-10A; test: Cytotoxicity in normal mammary epithelial cells (MTT); assay type: cell-based; conditions: normal mammary epithelial cell line
# Excerpt: The MDA-MB-468 cell line was procured from the Cell Bank of the Chinese Academy of Sciences. The MCF-7, MCF-7/ADR, MCF-10A, and MDA-MB-231 cell lines were kindly provided by Professor Xianyi Sha (Fudan University, Shanghai, China). The HUVEC cells were kindly provided by Associate Professor Hulie Zeng (Fudan University, Shanghai, China). The MDA-MB-468, MDA-MB-231, MCF-7, MCF-10A, and HUVEC cells were cultivated in DMEM (Service Biotechnology, China) supplemented with 10% FBS (Capricorn Scientific, Germany) and 1% penicillin-streptomycin (Meilunbio, Dalian, China). For the MCF-7/ADR cells, they were cultured in RPMI-1640 (Service Biotechnology, Wuhan, China), containing 10% FBS and 1% penicillin-streptomycin. […]
# Following harvest during logarithmic growth, cells were plated in 96-well culture plates at an initial density of 5000 cells per well. […] The OD value at 570nm was measured using a microplate reader (Thermo Fisher, Waltham, MA, USA). Cell proliferation inhibition was determined using the following formula:Inhibition (%) = [(ODDMSO − ODcompd.)/(ODDMSO − ODblank)] × 100
# GraphPad Prism software 9 was used to calculate the IC50 values. […] For instance, in the cell experiment, we recorded the cell viability values at different drug concentrations. […]
# GPX4 in MCF-7/ADR = test: Western blot of GPX4; assay type: cell-based, human; conditions: after treatment of 9e
# Experimental: MCF-7/ADR (2 × 10^5 cells/well) were plated in 6-well plates. After 24 h treatment with 9e (20 nM), cell lysates were prepared using RIPA buffer (Beyotime, Shanghai, China; 30 min, ice), then centrifuged (12,000 rpm, 10 min, 4 °C) to harvest protein supernatants. Protein concentrations were measured by BCA assay (Beyotime, Shanghai, China). The supernatants were then loaded and transferred onto PVDF membranes (Millipore, Billerica, MA, USA) for western blot. The blots were developed with ECL chemiluminescent solution (Meilunbio, Dalian, China). Commercially purchased antibodies include P-gp (Abcam, Cambridge, UK; ab170904), Caspase 3 (Proteintech, Wuhan, China; 19677-1-AP), Bcl-2 (Servicebio, Wuhan, China; GB113375-100), LC3 (Abcam, Abcam, Cambridge, UK; ab192890), P62 (Cell Signaling Technology, Danvers, MA, USA; 5114 T), Beclin (ABclonal, Wuhan, China; A7353), GPX4 (ABclonal, Wuhan, China; A11243), LAMP1 (Cell Signaling Technology, Danvers, MA, USA;15,665 T), GAPDH (Servicebio, Wuhan, China; GB11002-100), and β-Actin (Servicebio, Wuhan, China;GB11001-100). The secondary antibodies conjugated with horseradish peroxidase (HRP) were from Abmart.
# LC3 in MCF-7/ADR = test: LC3 immunofluorescence; assay type: cell-based, human; conditions: 9e 10 nM, 24 hours
# Experimental: MCF-7/ADR (1 × 10^5 cells/dish) were seeded in confocal dishes and cultured overnight. After being treated with 9e (20 nM) for 24 h, cells were fixed with 4% paraformaldehyde (Servicebio, Wuhan, China) for 15 min at room temperature. Then, they were washed three times with PBS. Next, cells were blocked with a solution containing 3% BSA (Biofroxx, Einhausen, Germany) and 0.3% Triton X-100 (Beyotime, Shanghai, China) for 1 h at room temperature. The cells were incubated with the primary antibody, which was diluted in 3% BSA and 0.3% Triton X-100, overnight at 4 °C. After three washes with PBS, the cells were incubated with the fluorescent secondary antibody (Alexa Fluor 488 and Alexa Fluor 594, Bioss, Beijing, China) for 1 h at room temperature. Following another three washes with PBS, the cellular DNA was stained with Hoechst 33,342 dye (10 min, 37 °C).
# P-gp in MCF-7/ADR = test: Rh-123 accumulation assay (flow cytometry); assay type: cell-based, human; conditions: 9e 20 nM, vs DMSO
# Experimental: Harvest the MCF-7/ADR cells and seed them into a 96-well plate (2 × 10^5 cells/well). Following overnight culture, cells were treated with 9e (10 and 20 nM) or DMSO (vehicle control) for 60 min. After aspiration of the medium, cells were washed thrice with PBS and subsequently incubated with Rh123 solution (1 μg/mL; Sigma-Aldrich) for 60 min. Subsequently, wash three times with PBS, then digest and centrifuge them (1000× g, 5 min). Resuspend the cells with 1 mL of PBS and centrifuge again (1000× g, 5 min). Finally, after resuspending the cells with 200 μL of PBS, the fluorescence of Rh123 was analyzed by flow cytometry (Beckman, Brea, CA, USA).
# MCF-7/ADR = test: Antiproliferative activity of 9e after pre-treatment with inhibitors (MTT); assay type: cell-based, human
# Experimental: Following harvest during logarithmic growth, cells were plated in 96-well culture plates at an initial density of 5000 cells per well. Incubate the plate overnight at 37 °C to allow the cells to adhere. Following the overnight incubation, introduce the compound at the predetermined concentration into each well, and then return the plate to the incubator for an additional 48 h culture period. After the 48 h treatment, carefully aspirate the drug-containing medium from each well. Subsequently, add 150 μL of 0.5 mg/mL MTT (Beyotime, China) solution to each well. Protect the plate from light and incubate it at 37 °C for 4 h to allow the formation of formazan crystals. Finally, add 150 μL of DMSO (Sinopharm, China) to each well and gently mix to ensure complete dissolution of the formazan crystals. The OD value at 570nm was measured using a microplate reader (Thermo Fisher, Waltham, MA, USA). Cell proliferation inhibition was determined using the following formula:Inhibition (%) = [(ODDMSO − ODcompd.)/(ODDMSO − ODblank)] × 100
# Carboxy-PTIO (NO scavenger), NAC (N-acetylcysteine), tariquidar (P-glycoprotein inhibitor), and Fer-1 (ferrostatin-1, ferroptosis inhibitor) were purchased from Beyotime. MCF-7/ADR (5000 cells/well) were plated in 96-well plates and cultured overnight. Then, the cells were pre-treated with specified concentrations of inhibitors for 1 h and incubated with 9e (10 or 20 nM) or DMSO (24 h, 37 °C). Experimental procedures were the same as the method for the in vitro antiproliferative assay.
smiles,measurement,setting,value
"COc1ccc(CCC(=O)c2ccc(OCCOc3no[n+]([O-])c3S(=O)(=O)c3ccccc3)cc2OC)cc1 [Compound 9e, 4-(2-(3-methoxy-4-(3-(4-methoxyphenyl)propanoyl)phenoxy)ethoxy)-3-(phenylsulfonyl)-1,2,5-oxadiazole 2-oxide]",IC50,[1],13.2 µM
same,expression of GPX4,GPX4 in MCF-7/ADR,clearly decreased
same,fluorescence intensity of LC3,LC3 in MCF-7/ADR,significantly increased
same,Rh-123 accumulation (in words),P-gp in MCF-7/ADR,accumulated significantly
same,inhibitory activity after NAC pretreatment,MCF-7/ADR; 10 nM 9e + 1250 μM NAC,completely lost its inhibitory activity
same,cell survival rate with NO scavenger Carboxy-PTIO,MCF-7/ADR; 20 nM 9e + 100 μM Carboxy-PTIO,53.7%
same,cells still inhibited with P-gp inhibitor tariquidar,MCF-7/ADR; 9e + 5 μM tariquidar,62%
same,inhibition at 0.02 µM,"MCF-7/ADR; Homo sapiens, NCI/ADR-RES, 9e 20 nM alone, read-out: proliferation inhibition rate",89%
